System: B16F0 melanoma tumour
Assay: Biodistribution in B16 melanoma bearing mice
Format: in vivo, C57BL/6J mice
Settings: C57BL/6J mice; for Organ distribution Intestine / Organ distribution Liver / Organ distribution Spleen / Organ distribution Stomach / Organ distribution Thyroid / Organ distribution Tumour: B16F0 tumour, mean ± S.D.; for Organ distribution Intestine / Organ distribution Liver / Organ distribution Spleen / Organ distribution Stomach / Organ distribution Thyroid / Organ distribution Tumour / Uptake Lung / uptake BLOOD / uptake BRAIN / uptake HEART / uptake KIDNEY / uptake LIVER / uptake TUMOUR: n = 5; for tumour standardized uptake value (SUVt) / Uptake Lung / uptake BLOOD / uptake BRAIN / uptake HEART / uptake KIDNEY / uptake LIVER / uptake TUMOUR: B16 tumour; for Uptake Lung / uptake BLOOD / uptake BRAIN / uptake HEART / uptake KIDNEY / uptake LIVER / uptake TUMOUR: mean ± SD
Method: Animal experiments were performed in compliance with the NHMRC Australian Code of Practice for the care and use of animals for scientific purposes. Female C57BL/6J black and BALB/c nude albino mice of 5 weeks age were obtained from the Animal Resources Centre, Western Australia. B16F0 murine melanoma cells were originally obtained from European Collection of Cell Cultures (UK) and A375 human amelanotic melanoma cells were originally obtained from American Type Culture Collection (USA). Before transplantation, B16F0 and A375 melanoma cells were maintained as a monolayer in RPMI culture medium supplemented with 10% foetal calf serum and antibiotics and passaged with trypsinisation. Early passages were frozen and stored in liquid nitrogen. Cells were passaged to P=10 and then discarded. Frozen aliquots were grown in a monolayer culture to between 80-95% confluence and for transplantation were trypsinised and washed with Ca^2+ and Mg^2+ free phosphate buffered saline (PBS). For inoculation, B16F0 melanoma cells were resuspended in Ca^2+ and Mg^2+ free PBS at 3 or 5×10^6 viable cells per ml and 0.1 ml was subcutaneously injected at the left flank of 6-7 weeks old C57BL/6J mice. Eleven days later, tumours could be palpated in >98% of inoculated animals. A375 human melanoma cells were resuspended at 1×10^7 viablecells per ml and 0.1 ml was injected subcutaneously at the left flank of 6 weeks old BALB/c nude mice and 25-26 days later tumours could be palpated with ˜60% of inoculated animals developing tumours.
Eleven days (B16F0 melanoma) and 25 days (A375 human melanoma) after tumour transplantation, the [^18F]nicotinamides (0.5-1.5 MBq, 100 μl) and [^123I]nicotinamide (0.37-0.74 MBq, 100 μl) derivatives were injected intravenously via the tail vein into mice (15-18 g). Time points of 1, 3, 6, 24, 48, 72 h after injection were chosen for determining the distribution of each compound in various organs and tissues for the iodine-123 labelled compounds and between 15 min and 6 hours (e.g. 15 min, 30 min, 1 h, 2 h, 4 h or 6 h) were chosen for the ^18F-labelled compounds. At defined times post injection, groups of mice (n=5) were weighed, sacrificed by CO2 administration followed by cervical dislocation and dissected. Selected organs were weighed and their radioactivity measured with a γ-counter. The remaining activity in the carcass was also determined in order to obtain the total activity in the mouse at defined time points. The fraction of injected activity (% ID) in the organ was calculated by comparison with suitable dilutions of the injected dose. Then, the radioactivity concentration in the organ (% ID/g) was found by dividing the % ID for each organ by the weight of the organ.

`CCN(CC)CCNC(=O)c1cncc(I)c1` [[^123I]11, N-(2-(diethylamino)ethyl)-5-iodonicotinamide] was tested, and the “Organ distribution Intestine” value (1 h) was 15 ± 2 % ID/organ, the “Organ distribution Liver” value (1 h) was 1.8 ± 0.3 % ID/organ and the “Organ distribution Spleen” value (1 h) was 0.16 ± 0.16 % ID/organ. For the same compound, the “Organ distribution Stomach” value (1 h) was 2.0 ± 0.2 % ID/organ, the “Organ distribution Thyroid” value (1 h) was 0.37 ± 0.07 % ID/organ and the “Organ distribution Tumour” value (1 h) was 1.3 ± 0.3 % ID/organ. For the same compound, the “Organ distribution Intestine” value (3 h) was 5 ± 2 % ID/organ, the “Organ distribution Liver” value (3 h) was 0.82 ± 0.08 % ID/organ and the “Organ distribution Spleen” value (3 h) was 0.06 ± 0.05 % ID/organ. The “Organ distribution Stomach” value (3 h) was 1.3 ± 0.3 % ID/organ, the “Organ distribution Thyroid” value (3 h) was 1.1 ± 0.3 % ID/organ and the “Organ distribution Tumour” value (3 h) was 1.0 ± 0.4 % ID/organ. The “Organ distribution Intestine” value (6 h) was 2.8 ± 0.4 % ID/organ, the “Organ distribution Spleen” value (6 h) was 0.05 ± 0.04 % ID/organ and the “Organ distribution Stomach” value (6 h) was 1.2 ± 0.2 % ID/organ. For the same compound, the “Organ distribution Thyroid” value (6 h) was 1.8 ± 1.0 % ID/organ, the “Organ distribution Tumour” value (6 h) was 1.1 ± 0.3 % ID/organ and the “Organ distribution Intestine” value (24 h) was 0.10 ± 0.02 % ID/organ. The “Organ distribution Liver” value (24 h) was 0.12 ± 0.01 % ID/organ, the “Organ distribution Spleen” value (24 h) was 0.01 ± 0.03 % ID/organ and the “Organ distribution Stomach” value (24 h) was 0.04 ± 0.01 % ID/organ. The “Organ distribution Thyroid” value (24 h) was 1.0 ± 0.3 % ID/organ, the “Organ distribution Tumour” value (24 h) was 0.7 ± 0.1 % ID/organ and the “Organ distribution Intestine” value (48 h) was 0.06 ± 0.01 % ID/organ. The “Organ distribution Liver” value (48 h) was 0.06 ± 0.01 % ID/organ, the “Organ distribution Spleen” value (48 h) was 0.00 ± 0.00 % ID/organ and the “Organ distribution Stomach” value (48 h) was 0.02 ± 0.01 % ID/organ. For the same compound, the “Organ distribution Thyroid” value (48 h) was 1.4 ± 0.3 % ID/organ, the “Organ distribution Tumour” value (48 h) was 0.7 ± 0.4 % ID/organ and the “Organ distribution Intestine” value (72 h) was 0.04 ± 0.01 % ID/organ. For the same compound, the “Organ distribution Liver” value (72 h) was 0.04 ± 0.01 % ID/organ, the “Organ distribution Spleen” value (72 h) was 0.01 ± 0.01 % ID/organ and the “Organ distribution Stomach” value (72 h) was 0.01 ± 0.01 % ID/organ. The “Organ distribution Thyroid” value (72 h) was 1.0 ± 0.6 % ID/organ, the “Organ distribution Tumour” value (72 h) was 0.3 ± 0.1 % ID/organ and the “tumour standardized uptake value (SUVt)” value (1 h) was 3.7 ± 1.0. For the same compound, the “Uptake Lung” value (1 h) was 1.4 ± 0.2 % ID/g, the “uptake BLOOD” value (1 h) was 1.21 ± 0.17 % ID/g and the “uptake BRAIN” value (1 h) was 0.14 ± 0.02 % ID/g. For the same compound, the “uptake HEART” value (1 h) was 0.8 ± 0.1 % ID/g, the “uptake KIDNEY” value (1 h) was 1.8 ± 0.5 % ID/g and the “uptake LIVER” value (1 h) was 1.9 ± 0.3 % ID/g. For the same compound, the “uptake TUMOUR” value (1 h) was 7.8 ± 1.7 % ID/g, the “tumour standardized uptake value (SUVt)” value (3 h) was 7.4 ± 1.6 and the “Uptake Lung” value (3 h) was 0.75 ± 0.07 % ID/g. For the same compound, the “uptake BLOOD” value (3 h) was 0.92 ± 0.09 % ID/g, the “uptake BRAIN” value (3 h) was 0.07 ± 0.01 % ID/g and the “uptake HEART” value (3 h) was 0.4 ± 0.04 % ID/g. For the same compound, the “uptake KIDNEY” value (3 h) was 0.8 ± 0.1 % ID/g, the “uptake LIVER” value (3 h) was 0.9 ± 0.1 % ID/g and the “uptake TUMOUR” value (3 h) was 6.0 ± 0.4 % ID/g. For the same compound, the “tumour standardized uptake value (SUVt)” value (6 h) was 12 ± 1, the “Uptake Lung” value (6 h) was 0.47 ± 0.11 % ID/g and the “uptake BLOOD” value (6 h) was 0.58 ± 0.14 % ID/g. For the same compound, the “uptake BRAIN” value (6 h) was 0.04 ± 0.01 % ID/g, the “uptake HEART” value (6 h) was 0.26 ± 0.06 % ID/g and the “uptake KIDNEY” value (6 h) was 0.5 ± 0.1 % ID/g. For the same compound, the “uptake LIVER” value (6 h) was 0.6 ± 0.1 % ID/g, the “uptake TUMOUR” value (6 h) was 5.9 ± 0.7 % ID/g and the “tumour standardized uptake value (SUVt)” value (24 h) was 37 ± 9. For the same compound, the “Uptake Lung” value (24 h) was 0.03 ± 0.02 % ID/g, the “uptake BLOOD” value (24 h) was 0.03 ± 0.01 % ID/g and the “uptake BRAIN” value (24 h) was 0.01 % ID/g. The “uptake HEART” value (24 h) was 0.04 ± 0.01 % ID/g, the “uptake KIDNEY” value (24 h) was 0.03 ± 0.01 % ID/g and the “uptake LIVER” value (24 h) was 0.12 ± 0.02 % ID/g. The “uptake TUMOUR” value (24 h) was 3.2 ± 0.9 % ID/g, the “tumour standardized uptake value (SUVt)” value (48 h) was 22 ± 5 and the “Uptake Lung” value (48 h) was 0.04 ± 0.01 % ID/g. For the same compound, the “uptake BRAIN” value (48 h) was 0.01 % ID/g, the “uptake HEART” value (48 h) was 0.03 ± 0.01 % ID/g and the “uptake KIDNEY” value (48 h) was 0.03 ± 0.01 % ID/g. The “uptake LIVER” value (48 h) was 0.08 ± 0.02 % ID/g, the “uptake TUMOUR” value (48 h) was 2.2 ± 0.4 % ID/g and the “tumour standardized uptake value (SUVt)” value (72 h) was 18 ± 12. For the same compound, the “Uptake Lung” value (72 h) was 0.04 ± 0.04 % ID/g, the “uptake BLOOD” value (72 h) was 0.02 ± 0.01 % ID/g and the “uptake BRAIN” value (72 h) was 0.01 % ID/g. For the same compound, the “uptake HEART” value (72 h) was 0.06 ± 0.02 % ID/g, the “uptake KIDNEY” value (72 h) was 0.02 ± 0.02 % ID/g and the “uptake LIVER” value (72 h) was 0.04 ± 0.01 % ID/g. For the same compound, the “uptake TUMOUR” value (72 h) was 1.4 ± 0.3 % ID/g.
